Data published in patent US5382525A, “Method of effecting increased performance of diagnostic enzyme reaction systems using noble gases” (American Air Liquide, priority 1992, dated 1995).

How the values were obtained:
[1] = tested on: Alkaline Phosphatase (EC 3.1.3.1); assay: Alkaline Phosphatase [ALP/AP] Sigma Kit No. 245-10 gas run; format: biochemical, Chicken; set-up: Rate Difference / Yield Difference: unit not given here; details: for rate of the alkaline phosphatase-catalyzed reaction (FIGS. 1-3): 10°, 25° and 35° C., saturation with the gas; for Yield Difference / Rate Difference: relative to air
Source text: Alkaline Phosphatase [ALP/AP] Sigma Kit. No. 245-10 Gas Run Protocol
Phosphatase, Alkaline P-8008
(Orthophosphoric-monoester phosphohydrolase [alkaline optimum]; EC 3.1.3.1)
From Chicken Intestine 5.1 Units/mg solid (1 g solid) Lot# 115F-3806
SIGMA Diagnostic Kit 245-10 (Procedure No. 245)
PRINCIPLE [drawing 1] The hydrolysis occurs at alkaline pH. The formation of p-nitrophenol can be observed as an increase in absorbance at 405 nm. The rate of increase directly proportional at ALP activity. […]
(§1) The following consists of example results obtained from gas runs. Negative numbers indicate an inhibition of the enzyme activity. Positive numbers indicate an enhancement of the enzyme activity

Urease EC 3.5.1.5 = target: T1, Urease EC 3.5.1.5 (Canavalia ensiformis, UniProt P07374); assay: Urea Nitrogen Diagnostic Kit (640) stop-flow gas run; format: biochemical, jack beans; details: 37° C.; relative to air
T1 construct: purchased Sigma 640-5; host or cells: jack beans
T1 sequence (P07374 whole entry, looked up): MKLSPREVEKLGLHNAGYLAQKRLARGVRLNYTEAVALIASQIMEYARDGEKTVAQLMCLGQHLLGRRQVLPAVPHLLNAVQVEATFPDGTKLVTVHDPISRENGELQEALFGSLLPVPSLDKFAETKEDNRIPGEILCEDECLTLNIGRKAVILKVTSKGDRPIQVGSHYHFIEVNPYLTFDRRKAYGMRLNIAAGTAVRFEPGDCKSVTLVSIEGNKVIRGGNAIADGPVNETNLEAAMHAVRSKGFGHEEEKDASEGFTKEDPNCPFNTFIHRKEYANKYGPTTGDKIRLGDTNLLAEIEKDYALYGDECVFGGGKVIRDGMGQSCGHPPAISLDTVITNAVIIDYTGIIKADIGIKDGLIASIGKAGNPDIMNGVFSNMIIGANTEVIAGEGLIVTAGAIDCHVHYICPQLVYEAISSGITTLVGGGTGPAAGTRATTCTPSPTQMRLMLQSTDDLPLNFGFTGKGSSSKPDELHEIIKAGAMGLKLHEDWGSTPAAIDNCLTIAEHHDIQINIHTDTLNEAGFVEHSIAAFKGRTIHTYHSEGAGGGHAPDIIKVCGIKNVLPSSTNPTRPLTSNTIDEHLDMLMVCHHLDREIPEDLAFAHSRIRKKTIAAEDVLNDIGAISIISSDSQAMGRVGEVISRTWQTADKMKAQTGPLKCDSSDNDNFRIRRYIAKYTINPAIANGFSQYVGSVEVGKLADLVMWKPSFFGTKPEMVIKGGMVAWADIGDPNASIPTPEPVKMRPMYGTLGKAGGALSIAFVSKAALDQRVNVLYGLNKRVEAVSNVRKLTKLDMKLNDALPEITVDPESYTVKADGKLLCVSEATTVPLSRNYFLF
Source text: Urea Nitrogen Diagnostic Kit (640) Protocol For Gas Run
Urea Nitrogen (Sigma Diagnostic Kit, Procedure No. 640)
Sigma No. 640-5 Buffered Urease from jack beans 100 units when prepared according to directions (3.33 units/ml). Sodium azide added as preservative. Store in refrigerator. Note expiration date: JUNE 1993
PRINCIPLE: Urea is hydrolyzed by urease to ammonia and carbon dioxide. [drawing 6] Ammonia then reacts with alkaline hypochlorite and phenol in the presence of a catalyst, sodium nitroprusside [Na2 Fe[CN]5 NO.2H2 O], to form indophenol. The concentration of ammonia is directly proportional to the absorbance of indophenol, which is measured spectrophotometrically at 570 nm. [drawing 7] Note: Ammonia free water (DI H2 O should be ok) is necessary for this procedure, Make sure to rinse everything with DI H2 O before use, If the blank has more than a trace of blue color ammonia contamination should be suspected.
PROCEDURE FOR STOP-FLOW GAS EXPERIMENT
In a 100 cc serum vial place 20 ml Urease soln (Soln A1). Stopper, seal and crimp. Bubble 400 ml of gas through (using the 500 ml gas-tight syringe). Superimpose 100 ml of gas, vial will be under positive pressure.
Sample 0.4 ml Urea Nitrogen Standard Solution 1 from gassed 3 cc vial. Add to the gassed 100 cc serum vial (containing 20 ml Soln A1). Start stop watch, gently swirl vial.
Take 0.5 ml samples every minute. Place the 0.5 ml sample into the corresponding 10 cc vial to stop the reaction. Inject immediately 1 ml Alkaline Hypochlorite Solution followed by 5 ml D.I. H2 O.
Let the 15×10 cc vials sit and develop color for 30 minutes. a 1 wavelength "scan" (see software) should be run: 3 ml per cuvette. Read vs a blank of 3 ml Soln B.
Spectrophotometric study procedure: 37° C.
as §1

[2] = tested on: Acid Phosphatase (EC 3.1.3.2); assay: Acid Phosphatase Sigma Kit No. 435-A gas run; format: biochemical, Potato; details: for rate of the acid phosphatase-catalyzed reaction (FIG. 4): 10° C., saturation with the gas; for % Rate Difference / % Yield Difference: relative to air
Source text: Acid Phosphatase Sigma Kit. No. 435-A Gas Run Protocol
(Orthophosphoric-monoester phosphohydrolase [acid optimum)]; EC 3.1.3.2)
From Potato 0.8 Units/mg solid (1 g solid) Lot# 17F-7285
SIGMA Diagnostic Kit 435-A (Procedure No. 435)
PRINCIPLE [drawing 3] Acid phosphatase [ACP] catalyzes the hydrolysis of α-Naphthyl phosphate to a-Naphthol and inorganic phosphate. α-Naphthol immediately reacts with fast red TR salt to produce a yellow chromophore with an absorbance maximum at 405 nm. The rate of increase in absorbance at 405 nm is directly proportional to ACP activity. […]
as §1

[3] = target: T2, Alcohol dehydrogenase EC 1.1.1.1 (Saccharomyces cerevisiae, UniProt P00330); assay: Alcohol [Ethanol] Diagnostic Kit Sigma No. 332-UV gas run; format: biochemical, yeast; details: relative to air
T2 construct: purchased Sigma 330-1; host or cells: yeast
T2 sequence (P00330 1-348): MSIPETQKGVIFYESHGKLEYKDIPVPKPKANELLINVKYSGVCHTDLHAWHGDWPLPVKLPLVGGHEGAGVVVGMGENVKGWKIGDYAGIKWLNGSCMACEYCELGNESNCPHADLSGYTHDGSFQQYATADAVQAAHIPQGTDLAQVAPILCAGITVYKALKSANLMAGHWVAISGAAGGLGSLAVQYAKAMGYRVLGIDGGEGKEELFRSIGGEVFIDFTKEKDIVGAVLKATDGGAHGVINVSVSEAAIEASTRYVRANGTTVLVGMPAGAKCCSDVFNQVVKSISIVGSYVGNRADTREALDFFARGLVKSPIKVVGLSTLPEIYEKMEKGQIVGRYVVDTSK
Experimental: Alcohol [Ethanol] Diagnostic Kit Sigma Diagnostic Kit No. 332-UV Gas Run Protocol
SIGMA Diagnostic Kit 332-BT (Procedure No. 332-UV)
The NAD-ADH vials, when reconstituted according to the directions, contain approximately the following concentrations of active ingredients: NAD, 0.6 μmol/ml, alcohol dehydrogenase [yeast], 50 U/ml, and stabilizers. […]
Step 1: Prepare diluted Ethanol Standard Solution by mixing 4.0 ml Glycine Buffer Reagent (332-9) with 0.5 ml Ethanol Standard Solution (330-20). Cap until ready for use. 4 substrate concentrations: […]
Inject 1×3 cc of gas in silicone-sealed cuvettes No 2nd and 3rd 3 cc gas injection: NAD-ADH solution squirts back in the syringes because of foam formation due to bubbling. Store cuvettes overnight in refrigerator (0°-5° C.) under two 3 cc syringes, in the dark. […]
Remove the G1 cuvettes out from the fridge. Bubble 2×3 cc of gas. Place cuvettes (under two 3 cc syringes filled up with the appropriate gas) in cell holder.
Sample diluted Ethanol Standard Solution with 1 cc syringes, pick syringes into silicone, push plungers simultaneously, run timedrives.
as §1

particulate sialidase = details: Sandhoff et al 1976; called questionable, highly impure enzymes; cited from earlier work
[4] = independent of oxygen partial pressure; Schreiner; cited from earlier work
[5] = 10 °C, positive = enhancement, negative = inhibition of enzyme activity

Row | SMILES | rate of the alkaline phosphatase-catalyzed reaction (FIGS. 1-3) [1] | Yield Difference ([1]; 10 °C) | Rate Difference [1, 5] | Rate Difference ([1]; 25 °C) | Yield Difference ([1]; 25 °C) | Rate Difference ([1]; 35 °C) | Yield Difference ([1]; 35 °C) | % Rate Difference (Urease EC 3.5.1.5) [%] | % Yield Difference (Urease EC 3.5.1.5) [%] | rate of the acid phosphatase-catalyzed reaction (FIG. 4) [2] | % Rate Difference ([2]; 10 °C) [%] | % Yield Difference ([2]; 10 °C) [%] | % Rate Difference ([2]; 25 °C) [%] | % Yield Difference ([2]; 25 °C) [%] | % Rate Difference ([2]; 35 °C) [%] | % Yield Difference ([2]; 35 °C) [%] | % Rate Difference ([3]; 0.24% Ethanol, 10° C.) [%] | % Yield Difference ([3]; 0.24% Ethanol, 10° C.) [%] | % Rate Difference ([3]; 0.32% Ethanol, 10° C.) [%] | % Yield Difference ([3]; 0.32% Ethanol, 10° C.) [%] | also measured
1 | [Ar] [Ar, argon] | improvement of the rate | 33.3 | 33.3 | 3.0 | 3.0 | 30.4 | 30.4 | 9.4 | 9.4 | improvement of the rate | 8.4 | 9.4 | 12.2 | 9.2 | -1.4 | -0.42 | 9.0 | 8.3 | 5.2 | 2.3 | % Rate Difference ([3]; 0.08% Ethanol, 10° C.): 8.8%; % Rate Difference ([3]; 0.24% Ethanol, 25° C.): -9.4%; % Yield Difference ([3]; 0.24% Ethanol, 25° C.): -6.6%
2 | [Kr] [Kr, krypton] | improvement of the rate | 1.7 | 1.7 | 9.1 | 9.1 | 4.3 | 4.3 | 0.0 | 0.0 | improvement of the rate | 18.1 | 16.0 | 13.3 | 7.3 | 1.4 | 1.3 | 11.9 | 14.2 | 8.6 | 4.7 | % Rate Difference ([3]; 0.08% Ethanol, 10° C.): 2.9%; % Rate Difference ([3]; 0.24% Ethanol, 25° C.): -9.4%; % Yield Difference ([3]; 0.24% Ethanol, 25° C.): -4.4%
3 | N#N [N2, Nitrogen, reference compound] |  | 0 | 0 | 0 | 0 | 0 | 0 | 0.0 |  |  |  |  |  |  |  |  |  |  |  |  | 
4 | [Ne] [Ne, neon] |  |  |  |  |  |  |  | 3.1 | 3.1 |  |  |  |  |  |  |  |  |  | 12.1 | 3.9 | 
5 | [Xe] [Xe, xenon] | improvement of the rate | 16.7 | 16.7 | 18.2 | 18.2 | 7.3 | 7.3 | 9.4 | 9.4 | improvement of the rate | 42.2 | 39.2 | 21.1 | 14.7 | 5.6 | 4.2 | 7.5 | 10.0 | 15.6 | 10.2 | effect on activity of particulate sialidase (particulate sialidase): enhance the activity; % Rate Difference ([3]; 0.24% Ethanol, 25° C.): -10.4%; % Yield Difference ([3]; 0.24% Ethanol, 25° C.): -8.0%
6 | FC(F)(F)C(Cl)Br (centres unmarked) [halothane] |  |  |  |  |  |  |  |  |  |  |  |  |  |  |  |  |  |  |  |  | effect on activity of particulate sialidase (particulate sialidase): enhance the activity
7 | [N-]=[N+]=O [nitrous oxide] |  |  |  |  |  |  |  |  |  |  |  |  |  |  |  |  |  |  |  |  | effect on activity of particulate sialidase (particulate sialidase): enhance the activity; inhibition per atmosphere of added gas [4]: 1.9 % inhibition per atmosphere
